Patent US9573887B2, “Naphthalene derivative” (Daito Chemix Corporation, priority 2010, dated 2017)
Structures can show the parent of a compound that is named as a salt.

The molecules below were run against T1, Mouse VCP (Mus musculus, UniProt Q01853) (assay: ATPase activity of purified His-tagged VCP, [γ-32P]ATP, liberated phosphate by liquid scintillation). Details: compounds of Examples; ATPase inhibitory activity; 500 ng VCP, 100 μM ATP, 37° C., 10 minutes.
T1 construct: histidine tag (N); made in house; host or cells: Sf-9 insect cells (baculovirus vector pVL1392)
T1 sequence (Q01853 whole entry): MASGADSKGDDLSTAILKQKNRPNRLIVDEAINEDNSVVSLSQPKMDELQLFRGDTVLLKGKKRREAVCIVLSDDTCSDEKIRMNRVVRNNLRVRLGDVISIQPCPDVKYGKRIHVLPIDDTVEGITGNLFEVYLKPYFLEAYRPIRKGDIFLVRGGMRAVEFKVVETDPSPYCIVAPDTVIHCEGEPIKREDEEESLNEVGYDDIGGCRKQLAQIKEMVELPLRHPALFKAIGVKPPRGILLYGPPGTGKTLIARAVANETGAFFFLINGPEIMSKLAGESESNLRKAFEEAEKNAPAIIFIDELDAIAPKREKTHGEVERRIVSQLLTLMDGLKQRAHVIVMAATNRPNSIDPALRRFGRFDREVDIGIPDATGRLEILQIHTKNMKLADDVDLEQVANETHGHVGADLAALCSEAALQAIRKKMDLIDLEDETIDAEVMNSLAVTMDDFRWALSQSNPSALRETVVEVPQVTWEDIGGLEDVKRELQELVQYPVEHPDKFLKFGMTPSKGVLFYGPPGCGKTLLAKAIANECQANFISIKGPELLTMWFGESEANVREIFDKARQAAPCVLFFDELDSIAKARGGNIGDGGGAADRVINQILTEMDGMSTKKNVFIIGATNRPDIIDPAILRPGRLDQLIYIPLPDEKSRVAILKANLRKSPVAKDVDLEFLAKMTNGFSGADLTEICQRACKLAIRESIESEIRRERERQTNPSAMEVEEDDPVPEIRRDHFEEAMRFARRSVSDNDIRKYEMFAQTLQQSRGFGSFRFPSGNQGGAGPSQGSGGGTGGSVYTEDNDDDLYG
Type: biochemical
Summary of the method: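 Liberated 32P-phosphate, extracted as a molybdate complex and counted by liquid scintillation, was the readout. Reactions used 500 ng Sf-9-expressed, Ni-purified His-VCP (mouse), 100 μM [γ-32P]ATP and varied test concentrations for 10 min at 37° C in HEPES pH 7.4 buffer with Mg2+ and DTT. IC50 derived by curve fitting.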

| SMILES | IC50 [nM] |
| --- | --- |
| Nc1c(/N=N/c2ccc(-c3cccc4c3sc3ccccc34)nc2)cc(S(=O)(=O)O)c2ccccc12 [Example 31, 4-amino-3-(6-dibenzothiophene-4-ylpyridine-3-ylazo)naphthalene-1-sulfonic acid sodium salt] | 1030 |
| COc1ccc(/N=N/c2cc(S(=O)(=O)O)c3ccccc3c2N)cn1 [Example 2, 4-amino-3-(6-methoxypyridine-3-ylazo)naphthalene-1-sulfonic acid sodium salt] | 571 |
| Nc1c(/N=N/c2ccccc2OCc2ccncc2)cc(S(=O)(=O)O)c2ccccc12 [Example 141, 4-amino-3-[2-(pyridine-4-ylmethoxy)phenylazo]naphthalene-1-sulfonic acid sodium salt] | 747 |
| Cc1ccc(C)c(-c2ccc(/N=N/c3cc(S(=O)(=O)O)c4ccccc4c3N)cn2)c1 [Example 34, 4-amino-3-[6-(2,5-dimethylphenyl)pyridine-3-ylazo]naphthalene-1-sulfonic acid sodium salt] | 274 |
| N#Cc1ccccc1/N=N/c1cc(S(=O)(=O)O)c2ccccc2c1N [Example 105, 4-amino-3-(2-cyanophenylazo)naphthalene-1-sulfonic acid sodium salt] | 238 |
| Nc1c(/N=N/c2ccc(OCc3cccnc3)cc2)cc(S(=O)(=O)O)c2ccccc12 [Example 135, 4-amino-3-[4-(pyridine-3-ylmethoxy)phenylazo]naphthalene-1-sulfonic acid sodium salt] | 716 |
| Nc1c(/N=N/c2cccnc2-c2ccccc2)cc(S(=O)(=O)O)c2ccccc12 [Example 50, 4-amino-3-(2-phenylpyridine-3-ylazo)naphthalene-1-sulfonic acid sodium salt] | 468 |
| CCCCOc1c(C=O)cc(C)cc1-c1ccc(/N=N/c2cc(S(=O)(=O)O)c3ccccc3c2N)cn1 [Example 92, 4-amino-3-[6-(3-formyl-2-butoxy-5-methylphenyl)pyridine-3-ylazo]naphthalene-1-sulfonic acid sodium salt] | 161 |
| Nc1c(/N=N/c2ccc(-c3c(OCc4cccnc4)ccc4c3sc3ccccc34)nc2)cc(S(=O)(=O)O)c2ccccc12 [Example 80, 4-amino-3-{6-″3-(pyridine-3-ylmethoxy)dibenzothiophene-4-yl]pyridine-3-ylazo}naphthalene-1-sulfonic acid sodium salt] | 329 |
| Nc1c(/N=N/c2ccc(-c3ccc(Cl)cc3)nc2)cc(S(=O)(=O)O)c2ccccc12 [Example 24, 4-amino-3-[6-(4-chlorophenyl)pyridine-3-ylazo]naphthalene-1-sulfonic acid sodium salt] | 540 |
| Nc1c(/N=N/c2ccc(C(F)(F)F)cc2)cc(S(=O)(=O)O)c2ccccc12 [Example 95, 4-amino-3-(4-trifluoromethylphenylazo)naphthalene-1-sulfonic acid sodium salt] | 393 |
| Cc1ccc(-c2ccc(/N=N/c3cc(S(=O)(=O)O)c4ccccc4c3N)cc2)cc1 [Example 125, 4-amino-3-(4′-methylbiphenyl-4-ylazo)naphthalene-1-sulfonic acid sodium salt] | 417 |

Further lines, results first:

| IC50 [nM] | SMILES |
| --- | --- |
| 407 | Nc1c(/N=N/c2ccc(OCC3CCCO3)nc2)cc(S(=O)(=O)O)c2ccccc12 (stereo not drawn) [Example 4, 4-amino-3-[6-(tetrahydrofuran-2-ylmethoxy)pyridine-3-ylazo]-1-naphthalenesulfonic acid sodium salt] |
| 408 | Nc1c(/N=N/c2ccc(Cl)cc2)cc(S(=O)(=O)O)c2ccccc12 [Example 100, 4-amino-3-(4-chlorophenylazo)naphthalene-1-sulfonic acid sodium salt] |
| 350 | Nc1c(/N=N/c2ccc(-c3cccc4cccnc34)nc2)cc(S(=O)(=O)O)c2ccccc12 [Example 83, 4-amino-3-(6-quinoline-8-ylpyridine-3-ylazo)naphthalene-1-sulfonic acid sodium salt] |
| 2260 | N#Cc1cccc(/N=N/c2cc(S(=O)(=O)O)c3ccccc3c2N)c1 [Example 106, 4-amino-3-(3-cyanophenylazo)naphthalene-1-sulfonic acid sodium salt] |
| 596 | Nc1c(/N=N/c2ccccc2OCc2ccccn2)cc(S(=O)(=O)O)c2ccccc12 [Example 140, 4-amino-3-[2-(pyridine-2-ylmethoxy)phenylazo]naphthalene-1-sulfonic acid sodium salt] |
| 295 | Nc1c(/N=N/c2cnc3ccccc3c2)cc(S(=O)(=O)O)c2ccccc12 [Example 145, 4-amino-3-(quinoline-3-ylazo)naphthalene-1-sulfonic acid sodium salt] |
| 279 | Nc1c(/N=N/c2ccc(-c3ncco3)nc2)cc(S(=O)(=O)O)c2ccccc12 [Example 36, 4-amino-3-(6-oxazole-2-ylpyridine-3-ylazo)naphthalene-1-sulfonic acid sodium salt] |
| 1230 | Nc1c(/N=N/c2ccc(F)cc2F)cc(S(=O)(=O)O)c2ccccc12 [Example 116, 4-amino-3-(2,4-difluorophenylazo)naphthalene-1-sulfonic acid sodium salt] |
| 163 | Nc1c(/N=N/c2ccc(-c3ccsc3)nc2)cc(S(=O)(=O)O)c2ccccc12 [Example 18, 4-amino-3-(6-thiophene-3-ylpyridine-3-ylazo)naphthalene-1-sulfonic acid sodium salt] |
| 887 | CCOC(=O)c1ccc(/N=N/c2cc(S(=O)(=O)O)c3ccccc3c2N)cc1 [Example 103, ethyl 4-(1-amino-4-sulfonaphthalene-2-ylazo)benzoate sodium salt] |
| 226 | Nc1c(/N=N/c2ccc(Br)cc2)cc(S(=O)(=O)O)c2ccccc12 [Example 110, 4-amino-3-(4-bromophenylazo)naphthalene-1-sulfonic acid sodium salt] |
| 499 | Nc1c(/N=N/c2ccc(-c3cccc4c3S(=O)(=O)c3ccccc3-4)nc2)cc(S(=O)(=O)O)c2ccccc12 [Example 73, 4-amino-3-[6-(5,5-dioxo-5H-5λ^6-dibenzothiophene-4-yl)pyridine-3-ylazo]naphthalene-1-sulfonic acid sodium salt] |
